Experimental data: patent US20060052751A1, “Fast perfusion cell chamber” (priority 2004, published 2006)

System: GABA transporter isoform GAT4
Experiment: GABA concentration jump, two-electrode voltage clamp in Xenopus laevis oocyte in fast perfusion chamber
Type: cell-based
Conditions: oocyte expressing GAT4, N=6
Source text: The usefulness of the Xenopus oocyte expression system for a variety of electrogenic membrane proteins has driven us to invent a novel rapid perfusion method which allows fast (≦20 ms) solution changes around intact, voltage-clamped Xenopus laevis oocytes (FIGS. 1-4). The present invention permits rapid solution changes to be made about voltage-clamped Xenopus laevis oocytes, while preserving the integrity of the cellular membrane. Defolliculated oocytes (intact vitelline membrane) and conventional two-electrode voltage clamp are used. For fast perfusion, the oocyte is placed in-line with the flow of buffer. The oocyte is supported primarily by an oocyte support base (6) equipped with oocyte support prongs (12), which prevent cellular movement. The current and voltage electrodes (4, 5) (for electrophysiological measurements) provide some support. Buffer flows from above the oocyte in a vertical direction (driven by gravity), at adjustable rates ranging from 1-50 ml/min. Healthy oocytes withstand maximal flow rates due to the chamber's support mechanisms.
In the absence of oocyte in the chamber, the fluid exchange rate at the recording electrodes is ≈3 ms at maximal buffer flow rates (FIG. 5), the fastest solution change rate ever reported for Xenopus laevis oocytes. The exchange rate with oocyte in place is more difficult to determine due to the highly invaginated surface of the cell (i.e., microvilli), but is estimated to be no more than ≈20 ms. The geometry of the oocyte, microvilli in the oocyte plasma membrane, as well as the oocyte vitelline membrane most likely contribute to this slowing effect. […] A number of features of the system have been examined with oocytes expressing the human γ-aminobutyric acid transporter protein and compared with results obtained from traditional methods (FIGS. 6 and 7). This system permits examination of ligand interaction with electrogenic membrane proteins, a proposition which has heretofore been unattainable. The system also allows for rapid determination of kinetic parameters for drugs of interest.
FIGS. 6A and 6B show a representative γ-aminobutyric acid (GABA) concentration jump in an oocyte expressing the GABA transporter isoform GAT4. The membrane potential (Vm) was held at −50 mV and the GABA concentration was 0.5 mM. […] This rapid transient induced by a concentration jump represents the fastest ever reported with the two-electrode voltage clamp for any membrane protein expressed in the Xenopus laevis oocyte expression system. […] The steady-state current represents steady-state Na^+/Cl^−/GABA cotransport into the cell. Only the steady-state current is observed in conventional two-electrode voltage clamp records (not shown). The rapid transient represents fast GABA-evoked electrogenic transitions. […] Referring to FIG. 6B, if GABA and Na^+ are simultaneously introduced, the rapid transient phase is absent and the evoked current follows a monoexponential behavior (τ=602±98 ms; N=6). […] Because these events are very fast events, these measurements would not have been possible without the present invention. Thus, our perfusion chamber allows the acquisition of novel information from electrogenic membrane transport proteins expressed in oocytes.

## NCCCC(=O)O [GABA, γ-aminobutyric acid]
GABA and Na+ simultaneously introduced, rapid transient phase absent
  time constant (τ) of monoexponential evoked current: 602 ± 98 ms
Vm -50 mV, GABA 0.5 mM
  time constant of decay of rapid transient phase of GABA-evoked current: 15 ± 2 ms
  time constant of mono-exponential decay of GABA-evoked current back to baseline upon rapid removal of GABA: 4.0 ± 0.6 s
  time constant of mono-exponential decay of slow transient phase to steady-state: 1.3 ± 0.1 s
  time-to-peak of rapid transient phase of GABA-evoked inward current: 20 ± 5 ms
